From patent publication US9233095B2, “Small molecule RNase inhibitors and methods of use” (University of Rochester, priority 2011, dated 2016)
≈ marks a conversion by molar mass, not a printed value. Like-named read-outs stand apart in the source and are kept apart here.

Columns and labels:
[1] = system: S. aureus cellular mRNA degradation; assay: GeneChip mRNA turnover of RNPA1000 challenged cells; type: cell-based; conditions: 0.5× MIC, 30 min treatment, versus mock treated cells
Experimental: For half life determinations, S. aureus strain UAMS-1, RN4220 (pCN51; plasmid containing CdCl2 inducible promoter), RN4220 (pRNPA; pCN51 capable of producing full length rnpA mRNA), or RN4220 (pRNPA-A.S.; pCN51 capable of producing rnpA antisense RNA) were grown to mid-exponential or stationary phase, transcription was arrested by the addition of rifampin (200 μg/ml), and aliquots were removed at 0-, 2.5-, 5-, 15- and 30-min post-transcriptional arrest for strain UAMS-1. To conserve reagents, aliquots were removed at 0 and 10 min post-transcriptional arrest for RN4220 derivatives. Plating ensured cultures had not developed rifampin resistance. Each strain and/or growth phase was assessed twice, except for RN4220 pRNPA-A.S. cells which were assessed four times. RNA was isolated from each aliquot, labeled, hybridized to an S. aureus GeneChip (Affymetrix; Santa Clara, Calif.), duplicates were averaged, and the mRNA half-lives of all mRNA species were determined, as previously described (see Anderson et al., J Bacteriol, 188: 6739-6756 (2006); Roberts et al., J Bacteriol, 188: 2593-2603 (2006)). […] Transcript synthesis was then arrested and the transcript titers of mRNA species were measured at 0- and 5-min post-transcriptional arrest (see Anderson et al., J Bacteriol, 188: 6739-6756 (2006); Roberts et al., J Bacteriol, 188: 2593-2603 (2006)). […]

S. aureus strain Smith = assay: acute lethal model of infection; type: in vivo, CD-1 mice; conditions: RNPA1000 128 mg/kg s.c., over the course of study
E. faecium (VRE) = assay: CLSI broth microdilution MIC; type: cell-based, Enterococcus faecium; conditions: for MIC: Enterococcus faecium
From the text: (§1) In some examples, compounds can be further assayed using the Mueller Hinton (MH) broth antibacterial assay as specified by the Clinical and Laboratory Standards Institute MIC broth microdilution protocol (see Methods for Dilution Antimicrobial Susceptibility Tests for Bacteria That Grow Aerobically; Approved Standard, In The Clinical and Laboratory Standards Institute (CLSI, formerly NCCLS), 7th ed., January 2006, 26 (2), M7-A7; see also Performance Standards for Antimicrobial Susceptibility Testing; Eighteenth Informational Supplement, In The Clinical and Laboratory Standards Institute (CLSI, formerly NCCLS), January 2008, 28 (1), M100-S18).
(§2) With the exception of RN4220-derivatives, in vitro activities of RNPA1000 against bacteria were determined by the broth microdilution method according to the Clinical and Laboratory Standards Institute (CLSI) guidelines using cation adjusted Mueller-Hinton broth or MH broth supplemented with 5% lysed horse blood (for testing Streptotococcus spp.). Microtiter plates containing serial dilutions of RNPA1000 (0, 4, 8, 16, 32, 64, and 128 μg/ml) were inoculated with 10^5 colony forming units (CFU)/ml and incubated for 18 hr at 37° C. […] The MIC value for each S. aureus strain was determined to be the median score of replicate measurements (n=5). Wells containing concentrations of RNPA1000≧MIC were plated for minimal bactericidal measurement. Where possible, experiments with VRSA strains were performed in a laminar flow hood to minimize potential for equipment contamination. For RN4220 cells containing plasmid vector (pCN51), RnpA overproducing plasmid (pRNPA-S) or RnpA underproducing plasmid (pRNPA-A.S.) in vitro antimicrobial activity of RNPA1000 was performed by the microdilution method as described above, except that cells were grown in Tryptic Soy Broth medium supplemented with 2.5 μM CdCl2 and 0, 1, 2, 4, 8, 16, 32, 64, or 128 μg/ml RNPA1000. Time-kill assays were also performed to monitor the antimicrobial properties of RNPA1000 for S. aureus strain UAMS-1 in the absence and presence of 0.25, 0.5, 2, and 4 times the strain's MIC for oxacillin (1 μg/ml), rifampicin (0.5 μg/ml), vancomycin (2 μg/ml), or daptomycin (1 μg/ml). The indicated amount of RNPA1000 and/or commercial antibiotic were added to mid-exponential phase (2×10^8 cfu/ml) S. aureus strain UAMS-1 cells and incubated at 37° C. Aliquots were removed at 0, 2, 4, 8, and 24 hr post-antimicrobial challenge, serial diluted, and plated to enumerate resulting cfu/ml. All time-kill assays were repeated at least 3 times.

E. faecium = assay: CLSI broth microdilution MIC; type: cell-based, Enterococcus faecium; conditions: for MIC: Enterococcus faecium
From the text: as §1, §2

RNase A = target: T1, RNase A (Bos taurus, UniProt P61823); assay: ribonuclease specificity test; type: biochemical; conditions: any concentration tested (0-750 μM)
T1 construct: purchased
From the text: (§3) In total, fourteen molecules inhibited the enzyme's RNA turnover activity by ≧50%. A gel-based secondary assay confirmed that five of these molecules were bona-fide inhibitors of RnpA-mediated RNA degradation (FIG. 3B).

E. coli RNase HI = target: T2, E. coli RNase HI (Escherichia coli, UniProt P0A7Y4); assay: ribonuclease specificity test; type: biochemical; conditions: any concentration tested (0-750 μM)
T2 construct: purchased
From the text: as §3

E. coli RNase III = E. coli RNase III (Escherichia coli, UniProt P0A7Y0); assay: ribonuclease specificity test; type: biochemical; conditions: data not shown
From the text: as §3

S. aureus RNase J1 = target: T3, S. aureus RNase J1 (Staphylococcus aureus, UniProt Q2FZG9); assay: ribonuclease specificity test; type: biochemical; conditions: any concentration tested (0-750 μM)
T3 construct: hexahistidine-tag (N); made in house; host or cells: E. coli BL21 (DE3)
From the text: as §3

T1 sequence (P61823 27-150): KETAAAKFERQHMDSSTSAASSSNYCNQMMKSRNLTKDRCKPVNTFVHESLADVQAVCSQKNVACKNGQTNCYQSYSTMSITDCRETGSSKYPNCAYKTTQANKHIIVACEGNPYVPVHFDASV
E. coli RNase III, sequence (P0A7Y0 whole entry): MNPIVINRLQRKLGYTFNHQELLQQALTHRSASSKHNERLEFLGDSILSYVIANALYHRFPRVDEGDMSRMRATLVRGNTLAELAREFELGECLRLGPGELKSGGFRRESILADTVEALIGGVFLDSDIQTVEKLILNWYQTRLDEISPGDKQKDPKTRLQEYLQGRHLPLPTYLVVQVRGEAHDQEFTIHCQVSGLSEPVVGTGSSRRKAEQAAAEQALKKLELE
T2 sequence (P0A7Y4 whole entry): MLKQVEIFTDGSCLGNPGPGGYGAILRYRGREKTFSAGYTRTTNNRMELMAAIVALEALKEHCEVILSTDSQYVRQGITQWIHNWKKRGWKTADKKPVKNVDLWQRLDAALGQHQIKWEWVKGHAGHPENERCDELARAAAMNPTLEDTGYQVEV

`Cc1cc(/C=C(/C#N)C(=O)Nc2cccc(Br)c2)c(C)n1-c1ccc(C(=O)O)cc1` [RNPA1000] was tested. Which “mRNA degradation rate of S. aureus cells” value [1] did it give?
Its value is “reduced the mRNA degradation rate”.

And the survival (S. aureus strain Smith)?
The survival was 30%.

And the “antimicrobial activity in words” value (E. faecium (VRE))?
Its value is “mild activity”.

And the MIC (E. faecium (VRE); E. faecium (VRE) Isolate 1)?
The MIC was 64 µg/mL (≈ 138 µM).

What about the MIC (E. faecium (VRE); E. faecium (VRE) Isolate 2) of the same compound?
Its MIC is 64 µg/mL (≈ 138 µM).

What about the MIC (E. faecium (VRE); E. faecium (VRE) Isolate 3) of the same compound?
Its MIC is 32 µg/mL (≈ 68.9 µM).

What about the MIC (E. faecium (VRE); E. faecium (VRE) Isolate 4) of the same compound?
The MIC was 64 µg/mL (≈ 138 µM).

What about the MIC (E. faecium (VRE); E. faecium (VRE) Isolate 5) of the same compound?
The MIC was 32 µg/mL (≈ 68.9 µM).

What about the “antimicrobial activity in words” value (E. faecium) of the same compound?
The value was “mild activity”.

And the MIC (E. faecium; E. faecium Isolate 1, read-out: MIC)?
Its MIC is 64 µg/mL (≈ 138 µM).

What about the MIC (E. faecium; E. faecium Isolate 2, read-out: MIC) of the same compound?
The MIC was 64 µg/mL (≈ 138 µM).

What about the MIC (E. faecium; E. faecium Isolate 3, read-out: MIC) of the same compound?
Its MIC is 64 µg/mL (≈ 138 µM).

What about the MIC (E. faecium; E. faecium Isolate 4, read-out: MIC) of the same compound?
Its MIC is 64 µg/mL (≈ 138 µM).

What about the MIC (E. faecium; E. faecium Isolate 5 + reserpine (efflux pump inhibitor)) of the same compound?
The MIC was 32 µg/mL.

And the MIC (E. faecium; E. faecium Isolate 5, read-out: MIC)?
Its MIC is 64 µg/mL (≈ 138 µM).

What about the “effect on RNase A activity” value (RNase A) of the same compound?
Its value is “did not affect the activity”.

What about the “effect on E. coli RNase HI activity” value (E. coli RNase HI) of the same compound?
The value was “did not affect the activity”.

What about the IC50 (E. coli RNase III) of the same compound?
Its IC50 is 500 to 750 µM.

What about the “effect on S. aureus RNase J1 activity” value (S. aureus RNase J1) of the same compound?
Its value is “did not affect the activity”.
